Assay results taken from patent publication US20080269173A1, “Composition for Stimulating Growth of Dermal Papilla Cells and Promoting Hair Follicle Growth Comprising Vitamin C Derivatives” (Trichogene Inc., priority 2005, published 2008).

Legend:
dermal papilla cells [1] = assay: Growth of cultured dermal papilla cells (MTT method); format: cell-based, human; conditions: 0.25 mM, 5 days
Experimental: The dermal papilla was isolated from a bulb of the severed hair follicles under the binocular microscope, and then transferred into a tissue culture dish. The dermal papilla was cultured at 37° C. for 5 days under a 5% CO2 atmosphere in the DMEM medium supplemented with penicillin (100 U/ml), streptomycin (100 μg/ml) and 20% heat-inactivated fetal bovine serum (FBS, Hyclone, USA), and then subcultured in the same condition. The dermal papilla cells were kept in the DMEM including 10% FBS after the subculture. The secondary subcultured cells were used in the present invention.
The dermal papilla cells were incubated overnight at a density of 5,000 cells/well in a 96-well plate containing a DMEM medium supplemented with 10% FBS. The medium was then exchanged to the DMEMs including varied concentrations of Asc 2-P and incubated for 5 days, and then the cell number was measured using a MTT method.

osteoblast = conditions: Hata et al., 1988; cited from earlier work
dermal papilla cells [2] = assay: RT-PCR gene expression (mRNA) in dermal papilla cells; format: cell-based, human; conditions: 0.25 mM, 5 days
Experimental: The dermal papilla cells were incubated for 5 days in a medium including 0.25 mM Asc 2-P, and then their RNA was isolated using a TRIzol reagent (Gibco-BRL, Grand Island, N.Y.). cDNA was synthesized from the RNA using a cDNA synthesis kit containing superscript II reverse transcriptase and random hexamer (Gibco-BRL). The cDNA was amplified with sets of gene-specific primers (Table 1).
Gene expression levels of IGF-1 (insulin like growth factor 1), HGF (hepatocyte growth factor), VEGF (vascular endothelial growth factor), KGF (keratinocyte growth factor), collagen I, collagen III, versican and alkaline phosphatase (ALP) were analyzed in the present invention.

[3] = aqueous solution, general culture conditions; cited from earlier work
[4] = test system: versican in the hair follicle; assay: Immunostaining of versican in hair follicle; format: cell-based, human; conditions: 0.1 mM and 1 mM, 5 days
Experimental: The hair follicles were incubated for 5 days in the media treated with 0.1 mM and 1 mM Asc 2-P, and then their immunostaining experiments were conducted against versican.

human dermal fibroblast = conditions: Hata et al., 1988; cited from earlier work
[5] = test system: human anagen hair follicle; assay: In vitro growth of isolated human anagen hair follicles (organ culture, length measurement); format: cell-based; conditions: 0.05 mM and 0.25 mM, 9 days, Williams E medium; P<0.05
Experimental: Biopsy samples were obtained from a […] region of scalp of a patient with androgenic alopecia during the hair transplantation operation with their approval in the Kyungpook National University hospital. The hair follicles were isolated and incubated according to the known method (Philpott et al., J Cell Sci. 97:463-471, 1990).
The anagen hair follicles were isolated from the scalp under a stereoscopic binocular microscope. Upper one third of the isolated anagen hair follicles were cut out, and lower two third of them were incubated at 37° C. in a Williams E medium (Sigma, USA) under a 5% CO2 atmosphere. The hair follicles were incubated for 9 days in a medium including Asc 2-P, and then their length was measured using a stereoscopic microscope.

SMILES | growth of dermal papilla cells (cell number, MTT) (dermal papilla cells [1]; 0.05 mM, 1 mM and 5 mM, P<0.05) | growth of dermal papilla cells relative to the control group (dermal papilla cells [1]; MTT) | growth of osteoblast (osteoblast) | HGF mRNA (dermal papilla cells [2]) | IGF-1 mRNA (dermal papilla cells [2]) | KGF mRNA (dermal papilla cells [2]) | VEGF mRNA (dermal papilla cells [2]) | alkaline phosphatase (ALP) mRNA (dermal papilla cells [2]) | collagen I mRNA (dermal papilla cells [2]) | collagen III mRNA (dermal papilla cells [2]) | versican mRNA (dermal papilla cells [2]) | stability [3] | expression of versican in the hair follicle (immunostaining) [4] | growth of human dermal fibroblast (human dermal fibroblast) | growth (length) of hair follicle [5]
O=C1O[C@H]([C@@H](O)CO)C(O)=C1OP(=O)(O)O [Asc 2-P, L-ascorbic acid-2-phosphate magnesium] | significantly stimulated growth | 2.4 times | stimulates growth | no effect | increased | no effect | no effect | increased | no effect | no effect | increased | more stable than the vitamin C | increased | stimulates growth | significantly grown
O=C1O[C@H]([C@@H](O)CO)C(O)=C1O [vitamin C, L-ascorbic acid] | – | – | stimulates growth | – | – | – | – | – | – | – | – | rapidly oxidized and degraded | – | stimulates growth | –
